Assay results reported in paper PMC5712521, “Dendrogenin A drives LXR to trigger lethal autophagy in cancers” (Nature Communications, 2017).

Assays:
[1] = test system: B16F10 cells; test: Cell cycle analysis by flow cytometry; format: cell-based, mouse; details: 5 µM DDA, 48 h
Protocol: (§1) Control and DDA-treated cells were fixed in 70% ethanol and then washed with PBS. Cells were incubated with 100 μg/ml RNase A for 30 min at 37 °C, permeabilized with 0.25% Tween-20, and stained with 50 μg/ml propidium iodide (PI) for 30 min at 37 °C. The DNA content of stained cells was analyzed by flow cytometry. The fraction of cells in sub-G1 phase was calculated using flowJo software (Ashland, Oregon). Data were obtained from 10^5 viable cells. […]

[2] = test system: SKMEL-28 cells; test: Cell cycle analysis by flow cytometry; format: cell-based, human; details: 5 µM DDA, 48 h
Protocol: as §1

[3] = test system: HL60 cells; test: Immunoblot densitometry; format: cell-based, human; details: 5 µM DDA, 24 h
Protocol: Immunoblotting was carried out as described previously. Proteins were separated on SDS-PAGE gels, electro-transferred onto polyvinylidene difluoride membranes and incubated overnight at 4 °C with the following antibodies: anti-Atg3, anti-Atg5 (D1G9), anti-Atg7 (D12B11), anti-Beclin (D40C5), anti-caspase-3 (Cell Signaling), anti-Bcl-2 (Millipore), anti-Bax (Millipore), anti-LC3 (Sigma-Aldrich), anti-LXRα (SantaCruz), anti-LXRβ (SantaCruz), anti-Nur77 (Active motif), anti-NOR1 (R&D systems), anti-PARP (Cell Signaling), anti-Vps34 (Cell Signaling), or anti-Actin (Millipore). For visualization, an ECL plus kit (Amersham Biosciences) was used, and chemiluminescence was measured by autoradiography (Supplementary Fig. 9). Specific bands were quantified with ImageQuant software. […]
(n=16- 20 mice/group) engrafted with KG1 cells or HL60 cells were treated with DDA (20 mg/kg/day, i.p.) or solvent vehicle (control). Tumor growth was monitored over time and was analyzed for significance using repeated measures ANOVA (***P<0.001). The mean tumor volumes ± SEM are shown. e Average tumor weight at the end of the experiments in d. *P<0.5, **P<0.01, ANOVA. f Mean tumor volumes measured at the end of the experiments for HL60 and KG1 graf ted into NOD/SCID or NMRI-Fo x1 -nude mice treated with DDA (40 mg/kg/day, p.o. or 20 mg/kg/day, i.p.) or solvent vehicle (control) (n=10- 20 mice per group). […]

[4] = test system: primary AML cells; test: Immunoblot densitometry in primary AML cells; format: cell-based, human; details: 5 µM DDA, 24 h
Protocol: Immunoblotting was carried out as described previously. Proteins were separated on SDS-PAGE gels, electro-transferred onto polyvinylidene difluoride membranes and incubated overnight at 4 °C with the following antibodies: anti-Atg3, anti-Atg5 (D1G9), anti-Atg7 (D12B11), anti-Beclin (D40C5), anti-caspase-3 (Cell Signaling), anti-Bcl-2 (Millipore), anti-Bax (Millipore), anti-LC3 (Sigma-Aldrich), anti-LXRα (SantaCruz), anti-LXRβ (SantaCruz), anti-Nur77 (Active motif), anti-NOR1 (R&D systems), anti-PARP (Cell Signaling), anti-Vps34 (Cell Signaling), or anti-Actin (Millipore). For visualization, an ECL plus kit (Amersham Biosciences) was used, and chemiluminescence was measured by autoradiography (Supplementary Fig. 9). Specific bands were quantified with ImageQuant software.
AML patient and normal bone marrow samples were obtained from patients in the Hematology Department of Toulouse (France), after obtaining consent in accordance with the Declaration of Helsinki[67], and according to institutional guidelines. Samples were stored at the INSERM-1037 HIMIP collection (no. DC-2008-307-CPTP1 HIMIP). For some experiments, fresh leukemic blasts recovered at diagnosis were immediately treated with DDA. In other cases, frozen cells were thawed in IMDM medium with 20% FBS. Patient characteristics are shown in supplementary data 1. Normal bone marrow cells were subjected to Ficoll-Paque density gradient separation to isolate mononuclear cells, followed by CD34+ cell separation using high-gradient magnetic-activated cell sorting, according to the manufacturer’s manual. The in vivo assays were performed with cryopreserved cells. […]
All data or images are
representative of 3 independent experiments.

CC(C)CCC[C@@H](C)[C@H]1CC[C@H]2[C@@H]3C[C@@H](NCCc4cnc[nH]4)[C@@]4(O)C[C@@H](O)CC[C@]4(C)[C@H]3CC[C@]12C [DDA, Dendrogenin A]
Cell cycle distribution: G0/G1 [1]: 54.50% | Cell cycle distribution: G2/M [1]: 9.83% | Cell cycle distribution: S [1]: 9.68% | Cell cycle distribution: Sub G0/G1 [1]: 25.03% | Cell cycle distribution: G0/G1 [2]: 51.80% | Cell cycle distribution: G2/M [2]: 4.93% | Cell cycle distribution: S [2]: 8.99% | Cell cycle distribution: Sub G0/G1 [2]: 34.28% | NOR1 protein, densitometry relative to untreated [3]: 1.9 | Nur77 protein, densitometry relative to untreated [3]: 1.8 | LC3-II protein, densitometry relative to vehicle ([4]; AML#4): 3.4 | LXRβ protein, densitometry relative to vehicle ([4]; AML#4): 0.9 | NOR1 protein, densitometry relative to vehicle ([4]; AML#4): 2 | Nur77 protein, densitometry relative to vehicle ([4]; AML#4): 1.4 | LC3-II protein, densitometry relative to vehicle ([4]; AML#5): 3 | LXRβ protein, densitometry relative to vehicle ([4]; AML#5): 0.7 | NOR1 protein, densitometry relative to vehicle ([4]; AML#5): 2.2 | Nur77 protein, densitometry relative to vehicle ([4]; AML#5): 1.7
